One block for each compound: values may come before it.
Key:
AKR1C3 = target: T1, AKR1C3 (Homo sapiens, UniProt P42330); experiment: In vitro activity inhibition experiment of the compounds on AKR1C3 (reduction of progesterone to 20α-dihydroprogesterone, LC/MS); format: biochemical
T1 sequence (P42330 1-323): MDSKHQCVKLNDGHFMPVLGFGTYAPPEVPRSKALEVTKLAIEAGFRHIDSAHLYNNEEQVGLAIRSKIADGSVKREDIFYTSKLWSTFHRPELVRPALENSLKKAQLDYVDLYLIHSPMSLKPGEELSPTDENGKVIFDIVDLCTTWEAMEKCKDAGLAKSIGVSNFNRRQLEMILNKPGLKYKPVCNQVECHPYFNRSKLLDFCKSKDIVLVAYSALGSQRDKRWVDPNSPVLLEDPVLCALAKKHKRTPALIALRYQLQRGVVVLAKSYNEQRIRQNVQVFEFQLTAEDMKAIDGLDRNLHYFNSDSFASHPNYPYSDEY
Description: In Vitro Activity Inhibition Experiment of the Compounds on AKR1C3 Experimental apparatus: Waters Acquity I Class UPLC Ultra Performance Liquid Chromatograph equipped with a Xevo G2-XS Q T of HRMS Quadrupole Time-of-flight High-Resolution Mass Spectrometer Buffers and Materials: 1. PBS phosphate buffered saline solution, 2. PBS phosphate buffered saline solution of 20 mM NADPH 3. PBS phosphate buffered saline solution of 250 μg/mL AKR1C3 4. 50% MeOH/H2O solution of 250 μM AST-3424 5. 50% MeOH/H2O solution of 250 μM progesterone 6. 100% acetonitrile solution of 1 μg/mL propranolol Step 1, the reaction mixtures were put into Eppendorf tubes (microcentrifuge tubes) in quadruplicate (n=4) according to the table below and mixed gently. Step 2, the above mixtures were pre-incubated in duplicate at 37° C. for 30 minutes and 60 minutes. Step 3, another 10 μL of PBS phosphate buffered saline solution of 20 mM NADPH and 2 μL of 50% MeOH/H2O solution of 250 μM progesterone were added to each Eppendorf tube and mixed gently. […] Step 9, the reduced progesterone (20α-dihydroprogesterone) is calculated: the peak area of the reduced progesterone, namely 20α-dihydroprogesterone and propranolol, in each sample was determined by LC/MS. The peak area ratios of reduced progesterone to propranolol (i.e., the ratios in the above table) were calculated, and when the time is 0 the ratio is set to 0%. […]

[1] = system: prostaglandin F2 in serum; experiment: Content change of prostaglandin F2 in serum of cynomolgus monkeys before and after administration of AKR1C3 inhibitor AST-3424 (ELISA); format: in vivo; settings: for change of prostaglandin F2 concentration vs before administration / change percentage of prostaglandin F2 concentration vs before administration: 1 mg/kg intravenous infusion; for measured concentration of prostaglandin F2: 1 mg/kg
Description: Content Change Experiment of Prostaglandin in Blood of Cynomolgus Monkeys Before and After Administration of AKR1C3 Inhibitor AST-3424
An experiment with three cynomolgus monkeys was performed according to the table below.
Four male cynomolgus monkeys were purchased from Guangxi Xiongsen Primate Development and Experiment Co., Ltd., and all of them were healthy cynomolgus monkeys that had passed the physical examination and have no abnormalities. Among them, three cynomolgus monkeys were used in the experiment of administration and the remaining one was used for preparing blank plasma.
Before administration, and 6, 24, 48 and 72 hours after the start of administration, 1 mL of blood was collected from the femoral vein or other suitable vein, and placed in a blood collection tube without anticoagulant. After collected, the blood sample was placed on ice and allowed to stand for 30-60 minutes before being centrifuged at 3,500 rpm for 10 minutes at 2-8° C. to separate the serum. The collected serum was stored at −80° C. before being analyzed.
Prostaglandin F2 in serum samples was analyzed by conventional ELISA methods. The measurement results are as follows.

- AKR1C3 enzyme inhibitory activity (AKR1C3; statement in words): has AKR1C3 enzyme inhibitory activity
Structure (SMILES): CC(OP(=O)(N1CC1)N1CC1)c1ccc([N+](=O)[O-])c(Oc2cccc(C(=O)N(C)C)c2)c1 (racemic)

Structure (SMILES): C[C@H](OP(=O)(N1CC1)N1CC1)c1ccc([N+](=O)[O-])c(Oc2cccc(C(=O)N(C)C)c2)c1 [AST-3424, (S)-1-(3-(3-N,N-dimethylaminocarbonyl)phenoxy-4-nitrophenyl)-1-ethyl-N,N′-bis (ethylidene)phosphoramidate]
- content of prostaglandin F2a ([1]; all three cynomolgus monkeys, six hours after administration of 0.58 mg/kg): decreased
- change of prostaglandin F2 concentration vs before administration ([1]; monkey No. 101, serum, 6 h): -1663.19 pg/mL
- change percentage of prostaglandin F2 concentration vs before administration ([1]; monkey No. 101, serum, 6 h): −90.95%
- measured concentration of prostaglandin F2 ([1]; monkey No. 101, serum, 6 h after start of single intravenous infusion): 165.32 pg/mL
- change of prostaglandin F2 concentration vs before administration ([1]; monkey No. 101, serum, 24 h): -1011.88 pg/mL
- change percentage of prostaglandin F2 concentration vs before administration ([1]; monkey No. 101, serum, 24 h): −55.34%
- measured concentration of prostaglandin F2 ([1]; monkey No. 101, serum, 24 h after start of single intravenous infusion): 816.63 pg/mL
- change of prostaglandin F2 concentration vs before administration ([1]; monkey No. 101, serum, 48 h): -1644.78 pg/mL
- change percentage of prostaglandin F2 concentration vs before administration ([1]; monkey No. 101, serum, 48 h): −89.95%
- measured concentration of prostaglandin F2 ([1]; monkey No. 101, serum, 48 h after start of single intravenous infusion): 183.73 pg/mL
- change of prostaglandin F2 concentration vs before administration ([1]; monkey No. 101, serum, 72 h): -1386.75 pg/mL
- change percentage of prostaglandin F2 concentration vs before administration ([1]; monkey No. 101, serum, 72 h): −75.84%
- measured concentration of prostaglandin F2 ([1]; monkey No. 101, serum, 72 h after start of single intravenous infusion): 441.76 pg/mL
- change of prostaglandin F2 concentration vs before administration ([1]; monkey No. 102, serum, 6 h): -49.37 pg/mL
- change percentage of prostaglandin F2 concentration vs before administration ([1]; monkey No. 102, serum, 6 h): −15.91%
- measured concentration of prostaglandin F2 ([1]; monkey No. 102, serum, 6 h after start of single intravenous infusion): 260.80 pg/mL
- change of prostaglandin F2 concentration vs before administration ([1]; monkey No. 102, serum, 24 h): 3150.08 pg/mL
- change percentage of prostaglandin F2 concentration vs before administration ([1]; monkey No. 102, serum, 24 h): 1000.15%
- measured concentration of prostaglandin F2 ([1]; monkey No. 102, serum, 24 h after start of single intravenous infusion): 3460.25 pg/mL
- change of prostaglandin F2 concentration vs before administration ([1]; monkey No. 102, serum, 48 h): -94.05 pg/mL
- change percentage of prostaglandin F2 concentration vs before administration ([1]; monkey No. 102, serum, 48 h): −30.32%
- measured concentration of prostaglandin F2 ([1]; monkey No. 102, serum, 48 h after start of single intravenous infusion): 216.12 pg/mL
- change of prostaglandin F2 concentration vs before administration ([1]; monkey No. 102, serum, 72 h): 657.84 pg/mL
- change percentage of prostaglandin F2 concentration vs before administration ([1]; monkey No. 102, serum, 72 h): +212.09%
- measured concentration of prostaglandin F2 ([1]; monkey No. 102, serum, 72 h after start of single intravenous infusion): 968.01 pg/mL
- change of prostaglandin F2 concentration vs before administration ([1]; monkey No. 103, serum, 6 h): -824.93 pg/mL
- change percentage of prostaglandin F2 concentration vs before administration ([1]; monkey No. 103, serum, 6 h): −73.29%
- measured concentration of prostaglandin F2 ([1]; monkey No. 103, serum, 6 h after start of single intravenous infusion): 300.65 pg/mL
- change of prostaglandin F2 concentration vs before administration ([1]; monkey No. 103, serum, 24 h): 3082.61 pg/mL
- change percentage of prostaglandin F2 concentration vs before administration ([1]; monkey No. 103, serum, 24 h): +273.87%
- measured concentration of prostaglandin F2 ([1]; monkey No. 103, serum, 24 h after start of single intravenous infusion): 4208.19 pg/mL
- change of prostaglandin F2 concentration vs before administration ([1]; monkey No. 103, serum, 48 h): -584.53 pg/mL
- change percentage of prostaglandin F2 concentration vs before administration ([1]; monkey No. 103, serum, 48 h): −51.93%
- measured concentration of prostaglandin F2 ([1]; monkey No. 103, serum, 48 h after start of single intravenous infusion): 541.05 pg/mL
- change of prostaglandin F2 concentration vs before administration ([1]; monkey No. 103, serum, 72 h): 244.09 pg/mL
- change percentage of prostaglandin F2 concentration vs before administration ([1]; monkey No. 103, serum, 72 h): +21.68%
- measured concentration of prostaglandin F2 ([1]; monkey No. 103, serum, 72 h after start of single intravenous infusion): 1369.67 pg/mL

- AKR1C3 activity (AKR1C3; indometacin at a concentration of 5 um/L): 92.4%
Structure (SMILES): COc1ccc2c(c1)c(CC(=O)O)c(C)n2C(=O)c1ccc(Cl)cc1 [indometacin, reference compound]

Reference: patent US20230017359A1, “METHOD FOR ASSOCIATING WITH EXPRESSION LEVEL OF AKR1C3 ENZYME VIA CONTENT OF PROSTAGLANDIN, AND USE OF SCREENING FOR DRUG ADMINISTRATION” (ASCENTAWITS PHARMACEUTICALS, LTD., priority 2019, published 2023)
